Measurements as given in patent US6765003B1, “3-Arylsulfonyl-2 (substituted methyl) propanoic acid derivatives as matrix metalloproteinase inhibitors” (Pharmacia Italia, SpA, priority 1999, dated 2004).
Like-named read-outs stand apart in the source and are kept apart here.

Columns and labels:
patients = conditions: may be severe and dose-limiting; cited from earlier work
[1] = target: T1, Human gelatinase-A (MMP-2) (Homo sapiens, UniProt P08253); test: MMP inhibition, internal fluorescence quenching method (MCA peptide substrate); type: biochemical
T1 sequence (P08253 110-660): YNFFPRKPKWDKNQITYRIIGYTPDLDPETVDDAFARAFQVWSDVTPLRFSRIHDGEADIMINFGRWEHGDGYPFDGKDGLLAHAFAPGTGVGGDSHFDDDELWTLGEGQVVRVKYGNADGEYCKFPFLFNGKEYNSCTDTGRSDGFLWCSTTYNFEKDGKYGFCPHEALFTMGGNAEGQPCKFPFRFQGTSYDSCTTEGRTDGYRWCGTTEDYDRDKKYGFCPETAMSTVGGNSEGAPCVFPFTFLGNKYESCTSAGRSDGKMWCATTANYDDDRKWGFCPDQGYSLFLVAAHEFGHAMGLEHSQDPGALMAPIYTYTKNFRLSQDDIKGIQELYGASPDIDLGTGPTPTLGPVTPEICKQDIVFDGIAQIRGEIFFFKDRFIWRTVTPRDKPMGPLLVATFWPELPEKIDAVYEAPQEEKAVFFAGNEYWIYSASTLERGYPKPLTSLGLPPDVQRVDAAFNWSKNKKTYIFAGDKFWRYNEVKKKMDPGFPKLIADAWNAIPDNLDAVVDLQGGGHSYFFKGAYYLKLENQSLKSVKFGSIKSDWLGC
Method: (§1) The inhibitory activity of the compounds of the present invention was evaluated in vitro against one or more of the MMP enzymes (gelatinases, collagenases, stromelysins) using the internal fluorescence quenching method. The assay method is based on the hydrolysis of the MMP substrate, MCA-Pro-Leu-Gly-Leu-DPA-Ala—Arg-NH2 at 37° C. (see Knight, C. G. et al., FEBS Lett. 296:263-266, 1992). The enzymes cleave at the Gly-Leu bond removing the internally quenching DPA group. The release of the highly fluorescent peptide MCA-Pro-Leu was monitored with a LS50 Perkin Elmer fluorimeter equipped with a Peltier-thermostated cell holder using an excitation wavelength of 326 nm and an emission wavelenght of 398 nm. Slis were set at 14/14. Proper determination of steady-state rates of substrate cleavage required a preincubation at 37° C. of 15 minutes to allow for complete equilibration of the enzyme-inhibitor complex. […] Rates of substrate hydrolysis, expressed as fluorescence arbitrary units per minute, were calculated by least-square analysis of the steady-state linear progression curves. The steady-state rates were fitted to the Michaelis equation describing competitive inhibition; in particular, Ki,app were determined by fining the data to the tight-binding equation of Morrison (Biochem. Biophys. Acta, 185:269-286, 1969) by non-linear methods.
(§2) Human gelatinase-A (MMP-2) was obtained as penzyme (72 kDa) and was activated with 1 mM 4-aminophenylmercuric acetate for 30 min at 37° C. immediately prior to use. The inhibitor was diluted into the assay from a stock solution in 100% DMSO, and controls substituted an equal volume of DMSO so that the final DMSO concentration from inhibitor and substrate dilution in all assays was 1%. The concentration of MMP-2 was 19.2 picoM. For compounds of formula (I) where X is —OH, the assay buffer was 50 mM Tris/HCl pH 6.5 containing 150 mM NaCl, 10 mM CaCl2, 0.01 mM ZnCl2 and 0.05% Brij35 (Protocol A). Other conditions were as stated above.
The compounds of formula (I) where X is —NHOH were tested against MMP-2 and MMP-1 under the conditions stated above, but the assay solution was buffered at pH 7.4 (Protocol B).

[2] = target: T2, Human fibroblast collagenase (MMP-1) (Homo sapiens, UniProt P03956); test: as above; type: biochemical
T2 sequence (P03956 101-269): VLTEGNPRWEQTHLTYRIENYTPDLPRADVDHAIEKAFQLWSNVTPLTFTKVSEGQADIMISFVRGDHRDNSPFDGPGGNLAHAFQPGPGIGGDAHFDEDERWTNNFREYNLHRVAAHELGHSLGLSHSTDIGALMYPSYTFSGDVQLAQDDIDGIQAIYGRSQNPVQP
Method: as §1, §2
Assay conditions were the same as above, but enzyme concentration was 200 picoM.

rats = conditions: rat, in vivo
Excerpt: Questions remain concerning their specificity, bioavailability, and potential long-tens toxicity (see Hodgson, J., ‘Remodeling MMPIs’, Biotechnology 13:554-557, 1995), especially because they are primarily intended (in arthritis and cancer, at least) for prolonged therapy. […] Although the cause of this toxicity is not well understood at this moment, it is thought to arise from an impairment in the normal tissue remodeling that is governed by one or more of the MMPs, primarily fibroblast collagenase (MMP-1). […] Thus, there is a strong need for better MMPIs, especially as far as the properties referred to above (specificity, bioavailability, long-term toxicity) are concerned.

[3] = Protocol A: Tris/HCl pH 6.5, 37° C., MMP-2 19.2 picoM, substrate 3 μM, carboxylic acids, read-out: MMP-2 Ki

| SMILES | melting point | Ki [1, 3] | further results |
| --- | --- | --- | --- |
| CC1(C)SCCN(S(=O)(=O)c2ccc(Oc3ccncc3)cc2)[C@H]1C(=O)NO [AG3340] | – | – | musculoskeletal syndrome in patients (patients): cause a musculoskeletal syndrome characterized by joint pain and stiffness |
| COc1ccc(S(=O)(=O)N(Cc2cccnc2)[C@@H](C(=O)NO)C(C)C)cc1 [CGS27023A] | – | – | musculoskeletal syndrome in patients (patients): cause a musculoskeletal syndrome characterized by joint pain and stiffness |
| O=C(O)C(CN1C(=O)CNC1=O)CS(=O)(=O)c1ccc(-c2ccc(Cl)cc2)cc1 (stereo not drawn) [Example 11, 3-[(4′-chloro[1,1′-biphenyl]-4-yl)sulfonyl]-2-[(2,5-dioxo-1-imidazolidinyl)methyl]propanoic acid] | 188 to 190 °C | 4 nM | – |
| O=C(NO)C(CN1C(=O)CNC1=O)CS(=O)(=O)c1ccc(-c2ccc(Cl)cc2)cc1 (stereo not drawn) [Example 12, 3-[(4′-chloro[1,1′-biphenyl]-4-yl)sulfonyl]-N-hydroxy-2-[(2,5-dioxo-1-imidazolidinyl)methyl]propanamide] | 150 to 156 °C | – | Ki ([2]; Protocol B: pH 7.4, 37° C., hydroxamic acids (X is —NHOH), read-out: MMP-1 Ki (picoM)): 17.1 nM; Ki ([1]; Protocol B: pH 7.4, 37° C., hydroxamic acids (X is —NHOH), read-out: MMP-2 Ki (picoM)): 0.069 nM |
| CNC(=O)[C@@H](NC(=O)[C@H](CC(C)C)[C@H](O)C(=O)NO)C(C)(C)C [Marimastat] | – | – | joint toxicity (histology of stifle joints) (rats): elicited histological alteration of stifle joints |
| CNC(=O)[C@@H](NC(=O)[C@@H](CC(=O)NO)CC(C)C)C(C)(C)C [Ro31-9790] | – | – | joint toxicity (histology of stifle joints) (rats): elicited histological alteration of stifle joints |

Now from value to compound, other results behind:

| melting point | Ki [1, 3] | SMILES | further results |
| --- | --- | --- | --- |
| 242 to 245 °C | 3 nM | CC1(C)NC(=O)N(CC(CS(=O)(=O)c2ccc(-c3ccc(Cl)cc3)cc2)C(=O)O)C1=O (stereo not drawn) [Example 9, 3-[(4′-chloro[1,1′-biphenyl]-4-yl)sulfonyl]-2-[(4,4-dimethyl-2,5-dioxo-1-imidazolidinyl)methyl]propanoic acid] | – |
| 166 to 168 °C | 8 nM | O=C(O)C(CSc1ncccn1)CS(=O)(=O)c1ccc(-c2ccc(Cl)cc2)cc1 (stereo not drawn) [Example 22, 3-[(4′-chloro[1,1′-biphenyl]-4-yl)sulfonyl]-2-[(2-pyrimidinylsulfanyl)methyl]-propanoic acid] | Ki ([2]; Protocol A: pH 6.5, 37° C., enzyme 200 picoM, substrate 3 μM, carboxylic acids, read-out: MMP-1 Ki): 8030 nM |
| 184 to 186 °C | 25 nM | Nc1nnc(SCC(CS(=O)(=O)c2ccc(-c3ccc(Cl)cc3)cc2)C(=O)O)s1 (stereo not drawn) [Example 23, 3-[(4′-chloro[1,1′-biphenyl]-4-yl)sulfonyl]-2-[[(5-amino-1,3,4-thiadiazol-2-yl)sulfanyl]methyl]propanoic acid] | – |
| 170 to 172 °C | 26.8 nM | Cc1cc(SCC(CS(=O)(=O)c2ccc(-c3ccc(Cl)cc3)cc2)C(=O)O)nc(C)n1 (stereo not drawn) [Example 26, 3-[(4′-chloro[1,1′-biphenyl]-4-yl)sulfonyl]-2-[[(2,6-dimethyl-4-pyrimidinyl)sulfanyl]methyl]propanoic acid] | – |
| 170 to 172 °C | 22.8 nM | Cc1cc(C)nc(SCC(CS(=O)(=O)c2ccc(-c3ccc(Cl)cc3)cc2)C(=O)O)n1 (stereo not drawn) [Example 27, 3-[(4′-chloro[1,1′-biphenyl]-4-yl)sulfonyl]-2-[[(4,6-dimethyl-2-pyrimidinyl)sulfanyl]methyl]propanoic acid] | – |
| 152 to 154 °C | 6.6 nM | O=C(O)C(CSc1nccs1)CS(=O)(=O)c1ccc(-c2ccc(Cl)cc2)cc1 (stereo not drawn) [Example 28, 3-[(4′-chloro[1,1′-biphenyl]-4-yl)sulfonyl]-2-[(1,3-thiazol-2-ylsulfanyl)methyl]propanoic acid] | – |
| 98 to 100 °C | 26 nM | Cn1nnnc1SCC(CS(=O)(=O)c1ccc(-c2ccc(Cl)cc2)cc1)C(=O)O (stereo not drawn) [Example 32, 3-[(4′-chloro[1,1′-biphenyl]-4-yl)sulfonyl]-2-[[(1-methyl-1H-tetrazol-5-yl)sulfanyl]methyl]propanoic acid] | – |
